Assay results: patent US9084424B2, “N-benzyl heterocyclic carboxamides” (BAYER INTELLECTUAL PROPERTY GMBH, priority 2010, dated 2015)

Assays:
[1] = log P by HPLC on reversed-phase column (EEC Directive 79/831 Annex V.A8); assay type: physicochemical; details: 0.1% aqueous formic acid and acetonitrile, linear gradient 10% to 90% acetonitrile
Protocol: In table 1, the log P values were determined in accordance with EEC Directive 79/831 Annex V.A8 by HPLC (High Performance Liquid Chromatography) on a reversed-phase column (C 18), using the method described below: Temperature: 40° C.; Mobile phases: 0.1% aqueous formic acid and acetonitrile; linear gradient from 10% acetonitrile to 90% acetonitrile. Calibration was carried out using unbranched alkan-2-ones (comprising 3 to 16 carbon atoms) with known log P values (determination of the log P values by the retention times using linear interpolation between two successive alkanones). lambda-max-values were determined using UV-spectra from 200 nm to 400 nm and the peak values of the chromatographic signals.

[2] = tested on: Alternaria solani; experiment: In vivo preventive test on Alternaria solani (tomato); details: preventive spray, 500 ppm of active ingredient, evaluated 7 days after inoculation
Protocol: In Vivo Preventive Test on Alternaria Solani (Tomato)
(§1) Solvent: 49 parts by weight of N,N-dimethylformamide
(§2) Emulsifier: 1 part by weight of alkylarylpolyglycolether
(§3) To produce a suitable preparation of active compound, 1 part by weight of active compound is mixed with the stated amounts of solvent and emulsifier, and the concentrate is diluted with water to the desired concentration.
To test for preventive activity, young plants are sprayed with the preparation of active compound at the stated rate of application. One day after this treatment, the plants are inoculated with an aqueous spore suspension of Alternaria solani. The plants remain for one day in an incubation cabinet at approximately 22° C. and a relative atmospheric humidity of 100%. Then the plants are placed in an incubation cabinet at approximately 20° C. and a relative atmospheric humidity of 96%.
The test is evaluated 7 days after the inoculation. 0% means an efficacy which corresponds to that of the untreated control while an efficacy of 100% means that no disease is observed.

[3] = tested on: Pyrenophora teres; experiment: In vivo preventive test on Pyrenophora teres (barley); details: preventive spray, 500 ppm of active ingredient, evaluated 7-9 days after inoculation
Protocol: In Vivo Preventive Test on Pyrenophora teres (Barley)
Solvent: 49 parts by weight of N,N-dimethylacetamid
Emulsifier: 1 part by weight of alkylaryl polyglycol ether
as §3
To test for preventive activity, young plants are sprayed with the preparation of active compound at the stated rate of application. One day after this treatment, the plants are inoculated with an aqueous spore suspension of Pyrenophora teres. The plants remain for 48 hours in an incubation cabinet at 22° C. and a relative atmospheric humidity of 100%. Then the plants are placed in a greenhouse at a temperature of approximately 20° C. and a relative atmospheric humidity of approximately 80%.
The test is evaluated 7-9 days after the inoculation. 0% means an efficacy which corresponds to that of the untreated control while an efficacy of 100% means that no disease is observed.

[4] = tested on: Sphaerotheca fuliginea; experiment: In vivo preventive test on Sphaerotheca fuliginea (cucumber); details: preventive spray, 500 ppm of active ingredient, evaluated 7 days after inoculation
Protocol: In Vivo Preventive Test on Sphaerotheca fuliginea (Cucumber)
as §1, §2, §3
To test for preventive activity, young plants are sprayed with the preparation of active compound at the stated rate of application. After the spray coating has dried on, the plants are inoculated with an aqueous spore suspension of Sphaerotheca fuliginea. The plants are then placed in a greenhouse at approximately 23° C. and a relative atmospheric humidity of approximately 70%.
The test is evaluated 7 days after the inoculation. 0% means an efficacy which corresponds to that of the untreated control, while an efficacy of 100% means that no disease is observed.

[5] = HPLC on reversed-phase column (C 18), 40° C.
[6] = HPLC, reversed-phase C 18, 40° C.

Row | Structure (SMILES) | logP [1, 5] | Efficacy [2] [%] | logP [1, 6] | Efficacy [3] [%] | Efficacy [4] [%]
1 | Cn1nc(C(F)F)c(C(=O)NCc2ccc(Cl)cc2)c1F [Example 127] | 2.55 | 90 |  |  | 
2 | CC(NC(=O)c1c(C(F)F)nn(C)c1F)c1ccccc1 (racemic) [Example 2] |  | 93 | 2.33 | 94 | 
3 | C=CCN(Cc1ccccc1CC)C(=O)c1c(C(F)F)nn(C)c1F [Example 16] |  | 80 | 3.36 | 100 | 
4 | CC(NC(=O)c1c(C(F)F)nn(C)c1Cl)c1ccccc1 (racemic) [Example 1] |  | 95 | 2.49 | 95 | 
5 | Cn1nc(C(F)F)c(C(=O)NC2(c3ccc(Cl)cc3Cl)CC2)c1Cl [Example 41] |  | 80 | 3.89 |  | 
6 | Cn1nc(C(F)F)c(C(=O)NC(c2ccccc2Cl)C(F)(F)F)c1F (racemic) [Example 23] |  | 89 | 3.21 |  | 
7 | Cn1nc(C(F)F)c(C(=O)NCc2ccc(Cl)cc2Cl)c1F [Example 37] |  | 94 | 4.19 |  | 
8 | CON(C(=O)c1c(C(F)F)nn(C)c1Cl)C(C)c1ccc(Cl)cc1Cl (stereo not drawn) [Example 46] |  | 100 | 3.81 | 100 | 
9 | Cn1nc(C(F)F)c(C(=O)NC(C)(C)c2cc(Cl)ccc2Cl)c1F [Example 52] |  |  | 3.89 |  | 80
10 | CC(c1ccccc1Cl)N(C)C(=O)c1c(C(F)F)nn(C)c1F (racemic) [Example 28] |  |  | 2.68 | 100 | 85
11 | Cn1nc(C(F)F)c(C(=O)NCc2cc(Cl)cc(Cl)c2)c1F [Example 115] | 3.09 | 94 |  | 90 | 
12 | Cn1nc(C(F)F)c(C(=O)NC2CCc3ccccc32)c1Cl (stereo not drawn) [Example 137] | 2.73 | 89 |  |  | 
13 | CC(c1ccc(Oc2ccccc2)cc1)N(C)C(=O)c1c(C(F)F)nn(C)c1Cl (racemic) [Example 153] | 3.76 | 90 |  | 80 | 
14 | Cn1nc(C(F)F)c(C(=O)NC2(c3ccc(C(F)(F)F)cc3)CCCC2)c1F [Example 121] | 3.72 | 70 |  | 94 | 
15 | Cn1nc(C(F)F)c(C(=O)NCc2cc(Cl)ccc2Cl)c1F [Example 54] |  | 89 | 4.19 |  | 
16 | Cn1nc(C(F)F)c(C(=O)NCc2cc(Cl)cc(Cl)c2)c1Cl [Example 113] | 3.23 | 90 |  | 80 | 
17 | Cn1nc(C(F)F)c(C(=O)NCc2ccc3c(c2)CCCC3)c1F [Example 110] | 3.25 | 94 |  | 80 | 
18 | Cn1nc(C(F)F)c(C(=O)NCc2ccccc2SC(F)(F)F)c1F [Example 107] | 3.11 | 80 |  | 100 | 
19 | Cn1nc(C(F)F)c(C(=O)NC(c2ccc(Cl)cc2Cl)C(F)(F)F)c1Cl (stereo not drawn) [Example 32] |  |  | 3.89 |  | 95
20 | Cn1nc(C(F)F)c(C(=O)NCc2cccc(Oc3ccccc3)c2)c1F [Example 145] | 3.23 | 90 |  |  | 
21 | Cn1nc(C(F)F)c(C(=O)N(Cc2cccc(Oc3ccccc3)c2)C2COC2)c1Cl [Example 147] | 3.19 | 70 |  |  | 
22 | Cn1nc(C(F)F)c(C(=O)NCc2ccccc2C(F)(F)F)c1Cl [Example 83] |  | 90 | 2.96 |  | 
23 | CC(NC(=S)c1c(C(F)F)nn(C)c1Cl)c1ccccc1C(F)(F)F (stereo not drawn) [Example 85] |  | 95 | 3.55 | 100 | 
24 | CN(Cc1c(Cl)cccc1C(F)(F)F)C(=O)c1c(C(F)F)nn(C)c1F [Example 89] |  | 95 | 2.93 | 100 | 
25 | Cn1nc(C(F)F)c(C(=O)NC(C)(C)c2cc(Cl)ccc2Cl)c1Cl [Example 49] |  |  | 3.89 |  | 94

Row | Structure (SMILES) | logP [1, 5] | Efficacy [2] [%] | logP [1, 6] | Efficacy [3] [%] | Efficacy [4] [%]
26 | Cn1nc(C(F)F)c(C(=O)NC(C)(C)c2ccc(Cl)cc2Cl)c1Cl [Example 35] |  |  | 3.89 |  | 86
27 | CC(c1ccccc1Cl)N(C)C(=O)c1c(C(F)F)nn(C)c1Cl (racemic) [Example 27] |  | 80 | 2.84 | 100 | 
28 | Cn1nc(C(F)F)c(C(=O)NCc2ccc(Oc3ccccc3)cc2)c1F [Example 152] | 3.23 | 89 |  | 95 | 
29 | Cn1nc(C(F)F)c(C(=O)NCc2ccc(-c3ccccc3)cc2)c1F [Example 170] | 3.21 | 94 |  | 95 | 
30 | Cn1nc(C(F)F)c(C(=O)NC(C)(C)c2ccccc2Cl)c1Cl [Example 22] |  |  | 3.15 |  | 80
31 | CN(Cc1c(Cl)cccc1Cl)C(=O)c1c(C(F)F)nn(C)c1Cl [Example 61] |  |  | 3.02 | 100 | 
32 | Cn1nc(C(F)F)c(C(=O)N(Cc2cccc(Oc3ccccc3)c2)C2COC2)c1F [Example 148] | 3.06 | 80 |  | 95 | 
33 | CN(Cc1ccc(Oc2ccc(Cl)cc2)cc1)C(=O)c1c(C(F)F)nn(C)c1F [Example 158] | 3.81 | 95 |  | 100 | 
34 | Cn1nc(C(F)F)c(C(=O)NCc2ccccc2C(F)(F)F)c1F [Example 81] |  | 90 | 2.76 |  | 
35 | Cn1nc(C(F)F)c(C(=O)NCc2ncc(C(F)(F)F)cc2Cl)c1F [Example 176] | 2.76 | 70 |  |  | 
36 | Cn1nc(C(F)F)c(C(=O)NC2(c3cc(Cl)ccc3Cl)CC2)c1F [Example 51] |  | 94 | 4.19 | 80 | 
37 | Cn1nc(C(F)F)c(C(=O)NC2CCc3ccccc32)c1F (stereo not drawn) [Example 138] | 2.57 | 94 |  |  | 
38 | Cn1nc(C(F)F)c(C(=O)NCc2ccc(OCc3ccccc3)cc2)c1F [Example 161] | 3.23 | 94 |  | 90 | 
39 | CC(NC(=O)c1c(C(F)F)nn(C)c1Cl)c1ccc(-c2ccccc2)cc1 (racemic) [Example 167] | 3.62 | 95 |  | 90 | 
40 | CN(Cc1cccc(Oc2ccccc2)c1)C(=O)c1c(C(F)F)nn(C)c1F [Example 150] | 3.31 | 70 |  | 100 | 
41 | CN(Cc1ccccc1Br)C(=O)c1c(C(F)F)nn(C)c1F [Example 105] | 2.71 | 95 |  | 94 | 
42 | CC(NC(=O)c1c(C(F)F)nn(C)c1Cl)c1ccc(OCc2ccccc2)cc1 (racemic) [Example 159] | 3.58 |  |  | 95 | 
43 | Cn1nc(C(F)F)c(C(=O)NCc2ccccc2Oc2ccccc2)c1F [Example 144] | 3.25 | 89 |  |  | 
44 | CCOc1ccc(C2(NC(=O)c3c(C(F)F)nn(C)c3F)CCCC2)cc1 [Example 131] | 3.44 |  |  | 94 | 
45 | Cn1nc(C(F)F)c(C(=O)NCc2cccc(-c3ccccc3)c2)c1F [Example 166] | 3.19 | 78 |  | 80 | 
46 | Cn1nc(C(F)F)c(C(=O)N(Cc2cc(Cl)ccc2C(F)(F)F)C2CSC2)c1F [Example 87] |  |  | 3.92 | 95 | 
47 | CN(Cc1ccc(Oc2ccccc2)cc1)C(=O)c1c(C(F)F)nn(C)c1F [Example 156] | 3.33 | 89 |  | 90 | 
48 | CC(NC(=O)c1c(C(F)F)nn(C)c1F)c1ccc(C2CCCCC2)cc1 (stereo not drawn) [Example 129] | 4.34 |  |  | 100 | 
49 | Cn1nc(C(F)F)c(C(=O)N(CC#N)Cc2c(Cl)cccc2C(F)(F)F)c1F [Example 88] |  | 80 | 2.68 |  | 
